Measured values: US12161715B2, “EGFR targeted therapy” (priority 2011, dated 2024)

Test: Case 3: conventional drugs approved for neuropathic pain
Format: in vivo, human
Conditions: failed back surgery syndrome; pregabalin follow-up 19 weeks

| SMILES | NP response to conventional drug, Case 3 |
| --- | --- |
| NCC1(CC(=O)O)CCCCC1 [gabapentin] | unsuccessfully treated |
| CC(C)C[C@H](CN)CC(=O)O [pregabalin] | responded |
